Source: US20230072683A1, “PYRIDO-PYRIMIDIN DERIVATIVES AND PHARMACEUTICAL COMPOSITION, FOR USE IN PREVENTING OR TREATING PI3 KINASE RELATED DISEASES, COMPRISING SAME AS ACTIVE INGREDIENT” (BORYUNG PHARMACEUTICAL CO., LTD, priority 2019, published 2023)
Read-outs that look alike come from different tables or passages of the source.

Assays:
DNA-PK(h) = DNA-PK(h) (Homo sapiens, UniProt P78527); test: Evaluation of inhibitory activity against DNA-PK (HTRF kinase assay, GST-cMyc-p53 substrate); assay type: biochemical; details: for inhibition at 0.01 µM: compound concentration 0.01 μM, read-out: EXP_VALUE(% Inhibition) DNA-PK(h) 0.01 μM; for inhibition at 0.1 µM: read-out: EXP_VALUE(% Inhibition) DNA-PK(h) 0.1 μM
Procedure, shortened: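 p53 Ser15 phosphorylation by human DNA-PK was measured by time-resolved FRET ratio (665/620 nm ×10000) using Eu-labelled anti-phospho-Ser15 and d2 anti-GST antibodies. Substrate GST-cMyc-p53 at 50 μM; Mg/ATP-initiated, 30 min at room temperature, EDTA stop.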

[1] = target: PI3K-δ (PI3K(p1108/p857) (h)) (Homo sapiens, UniProt O00329); test: Evaluation of inhibitory activity against PI3K-δ (HTRF kinase assay); assay type: biochemical; details: for inhibition at 0.01 µM: compound concentration 0.01 μM, read-out: EXP_VALUE(% Inhibition) PI3K-δ 0.01 μM; for inhibition at 0.1 µM: read-out: EXP_VALUE(% Inhibition) PI3K-δ 0.1 μM
PI3K-δ (PI3K(p1108/p857) (h)), sequence (O00329 whole entry, the tested form may be a part): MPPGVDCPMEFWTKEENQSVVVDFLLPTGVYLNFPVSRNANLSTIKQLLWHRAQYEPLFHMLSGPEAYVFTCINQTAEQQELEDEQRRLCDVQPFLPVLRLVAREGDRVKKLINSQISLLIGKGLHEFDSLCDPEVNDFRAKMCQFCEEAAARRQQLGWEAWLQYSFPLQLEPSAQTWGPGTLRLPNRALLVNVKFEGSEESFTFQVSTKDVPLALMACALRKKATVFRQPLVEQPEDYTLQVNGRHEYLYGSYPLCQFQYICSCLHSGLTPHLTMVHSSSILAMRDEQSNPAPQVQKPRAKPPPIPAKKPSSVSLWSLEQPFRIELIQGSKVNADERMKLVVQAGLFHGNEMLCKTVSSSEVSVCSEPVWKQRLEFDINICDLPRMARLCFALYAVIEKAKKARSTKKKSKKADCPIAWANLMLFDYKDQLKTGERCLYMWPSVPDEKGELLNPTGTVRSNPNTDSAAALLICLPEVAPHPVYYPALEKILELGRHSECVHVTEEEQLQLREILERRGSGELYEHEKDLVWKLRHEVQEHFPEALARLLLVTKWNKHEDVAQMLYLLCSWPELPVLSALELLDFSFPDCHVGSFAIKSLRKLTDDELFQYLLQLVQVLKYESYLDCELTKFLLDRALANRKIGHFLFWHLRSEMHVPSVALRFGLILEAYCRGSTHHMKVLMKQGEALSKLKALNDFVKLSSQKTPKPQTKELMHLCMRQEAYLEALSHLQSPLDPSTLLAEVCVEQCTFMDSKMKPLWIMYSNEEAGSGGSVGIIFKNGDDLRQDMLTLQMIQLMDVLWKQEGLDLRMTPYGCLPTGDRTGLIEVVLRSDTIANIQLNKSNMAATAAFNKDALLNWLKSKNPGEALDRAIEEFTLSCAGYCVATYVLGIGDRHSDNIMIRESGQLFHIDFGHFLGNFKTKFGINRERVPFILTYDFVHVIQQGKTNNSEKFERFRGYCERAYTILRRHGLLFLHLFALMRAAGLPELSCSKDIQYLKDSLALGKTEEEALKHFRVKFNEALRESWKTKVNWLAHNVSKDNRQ
PI3K-δ (PI3K(p1108/p857) (h)), sequence (P27986 whole entry partner, the tested form may be a part): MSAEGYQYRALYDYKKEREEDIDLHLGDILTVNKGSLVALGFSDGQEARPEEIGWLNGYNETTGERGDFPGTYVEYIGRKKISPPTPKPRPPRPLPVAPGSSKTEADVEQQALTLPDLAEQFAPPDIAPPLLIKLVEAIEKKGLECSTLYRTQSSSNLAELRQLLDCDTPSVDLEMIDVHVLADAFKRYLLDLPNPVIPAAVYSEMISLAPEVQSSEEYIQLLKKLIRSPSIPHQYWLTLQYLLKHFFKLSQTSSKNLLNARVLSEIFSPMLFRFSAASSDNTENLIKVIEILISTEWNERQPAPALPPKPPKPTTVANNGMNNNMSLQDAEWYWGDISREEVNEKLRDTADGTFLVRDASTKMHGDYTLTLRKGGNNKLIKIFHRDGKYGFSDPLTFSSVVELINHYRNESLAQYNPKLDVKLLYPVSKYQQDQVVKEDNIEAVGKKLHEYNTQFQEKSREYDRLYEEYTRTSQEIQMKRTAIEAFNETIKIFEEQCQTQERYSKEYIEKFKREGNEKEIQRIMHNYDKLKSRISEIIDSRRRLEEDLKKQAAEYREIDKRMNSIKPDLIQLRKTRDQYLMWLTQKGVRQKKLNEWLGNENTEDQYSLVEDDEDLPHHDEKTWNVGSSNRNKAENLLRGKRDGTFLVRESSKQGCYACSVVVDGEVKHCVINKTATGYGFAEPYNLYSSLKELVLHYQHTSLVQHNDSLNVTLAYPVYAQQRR
Procedure, shortened: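 HTRF read-out (665/620 nm ratio ×10000) used Eu-labelled anti-GST, GST-tagged GRP1 PH domain and streptavidin-allophycocyanin after EDTA/PIP3 stop.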

| Compound | inhibition at 0.01 µM (DNA-PK(h)) [%] | inhibition at 0.1 µM (DNA-PK(h); compound concentration 0.1 μM) [%] | inhibition at 0.01 µM [1] [%] | inhibition at 0.1 µM ([1]; compound concentration 0.1 μM) [%] | inhibition at 0.1 µM (DNA-PK(h); compound at 0.1 μM) [%] | inhibition at 0.1 µM ([1]; compound at 0.1 μM) [%] |
| --- | --- | --- | --- | --- | --- | --- |
| C[C@H](Nc1ncnc2[nH]ccc(=O)c12)c1c(Cl)c2cccc(C(=O)C3CC3)c2c(=O)n1-c1ccccc1 [Example 269, (S)-4-((1-(4-chloro-8-(cyclopropanecarbonyl)-1-oxo-2-phenyl-1,2-dihydroisoquinolin-3-yl)ethyl)amino)pyrido[2,3-d]pyrimidin-5(8H)-one] | 26 |  | 37 |  |  |  |
| CSc1ccc(-c2cccc3c(Cl)c([C@H](C)Nc4ncnc5[nH]ccc(=O)c45)n(-c4ccccc4)c(=O)c23)cc1 [Example 143, (S)-4-((1-(4-chloro-8-(4-(methylthio)phenyl)-1-oxo-2-phenyl-1,2-dihydroisoquinolin-3-yl)ethyl)amino)pyrido[2,3-d]pyrimidin-5(8H)-one] | 25 | 80 | 48 | 94 |  |  |
| C[C@H](Nc1ncnc2[nH]ccc(=O)c12)c1c(Cl)c2cccc(-c3ccc(C#N)cn3)c2c(=O)n1-c1ccccc1 [Example 31, (S)-6-(4-chloro-1-oxo-3-(1-((5-oxo-5,8-dihydropyrido[2,3-d]pyrimidin-4-yl)amino)ethyl)-2-phenyl-1,2-dihydroisoquinolin-8-yl) nicotinonitrile] | 2 |  | 0 |  |  |  |
| C[C@H](Nc1ncnc2[nH]ccc(=O)c12)c1c(Cl)c2cccc(-c3ccc(N4CCOCC4)nc3)c2c(=O)n1-c1ccccc1 [Example 175, (S)-4-((1-(4-chloro-8-(6-morpholinopyridin-3-yl)-1-oxo-2-phenyl-1,2-dihydroisoquinolin-3-yl)ethyl)amino)pyrido[2,3-d]pyrimidin-5(8H)-one] | 80 |  | 70 |  |  |  |
| Cc1nc2cc(-c3cccc4c(Cl)c([C@H](C)Nc5ncnc6[nH]ccc(=O)c56)n(-c5ccccc5)c(=O)c34)ccc2[nH]1 [Example 135, (S)-4-((1-(4-chloro-8-(2-methyl-1H-benzo[d]imidazol-5-yl)-1-oxo-2-phenyl-1,2-dihydroisoquinolin-3-yl)ethyl)amino)pyrido[2,3-d]pyrimidin-5(8H)-one] | 85 | 100 | 78 | 97 |  |  |
| CC(=O)Nc1ccc(-c2cccc3c(Cl)c([C@H](C)Nc4ncnc5[nH]ccc(=O)c45)n(-c4ccccc4)c(=O)c23)cn1 [Example 202, (S)—N-(5-(4-chloro-1-oxo-3-(1-((5-oxo-5,8-dihydropyrido[2,3-d]pyrimidin-4-yl)amino)ethyl)-2-phenyl-1,2-dihydroisoquinolin-8-yl)pyridin-2-yl) acetamide] | 70 |  | 78 |  |  |  |
| CCCNC(=O)c1cccc2c(Cl)c([C@H](C)Nc3ncnc4[nH]ccc(=O)c34)n(-c3ccccc3)c(=O)c12 [Example 275, (S)-4-chloro-1-oxo-3-(1-((5-oxo-5,8-dihydropyrido[2,3-d]pyrimidin-4-yl)amino)ethyl)-2-phenyl-N-propyl-1,2-dihydroisoquinoline-8-carboxamide] | 8 |  | 104 |  |  |  |
| C[C@H](Nc1ncnc2[nH]ccc(=O)c12)c1c(Cl)c2cccc(N3CCC[C@H]3C(N)=O)c2c(=O)n1-c1ccccc1 [Example 337, (S)-1-(4-chloro-1-oxo-3-((S)-1-((5-oxo-5,8-dihydropyrido[2,3-d]pyrimidin-4-yl)amino)ethyl)-2-phenyl-1,2-dihydroisoquinolin-8-yl) pyrrolidine-2-carboxamide] | 13 | 63 | 27 | 70 |  |  |
| Cc1ccc(-c2cccc3c(Cl)c([C@H](C)Nc4ncnc5[nH]ccc(=O)c45)n(-c4ccccc4)c(=O)c23)o1 [Example 98, (S)-4-((1-(4-chloro-8-(5-methylfuran-2-yl)-1-oxo-2-phenyl-1,2-dihydroisoquinolin-3-yl)ethyl)amino)pyrido[2,3-d]pyrimidin-5(8H)-one] | 84 | 98 | 66 | 91 |  |  |
| C[C@H](Nc1ncnc2[nH]ccc(=O)c12)c1c(Cl)c2cccc(-c3ccc(C(C)(C)C)nc3)c2c(=O)n1-c1ccccc1 [Example 34, (S)-4-((1-(8-(6-(tert-butyl)pyridin-3-yl)-4-chloro-1-oxo-2-phenyl-1,2-dihydroisoquinolin-3-yl)ethyl)amino)pyrido[2,3-d]pyrimidin-5(8H)-one] | 56 |  | 74 |  |  |  |
| C[C@H](Nc1ncnc2[nH]ccc(=O)c12)c1c(Cl)c2cccc(-c3cnc4[nH]ccc4c3)c2c(=O)n1-c1ccccc1 [Example 25, (S)-4-((1-(4-chloro-1-oxo-2-phenyl-8-(1H-pyrrolo[2,3-b]pyridin-5-yl)-1,2-dihydroisoquinolin-3-yl)ethyl)amino)pyrido[2,3-d]pyrimidin-5(8H)-one] | 7 |  | 6 |  |  |  |
| COc1cc(-n2ccc(=O)c3c(N[C@@H](C)c4c(Cl)c5ccccc5c(=O)n4-c4ccccc4)ncnc32)ccn1 [Example 374, (S)-4-((1-(4-chloro-1-oxo-2-phenyl-1,2-dihydroisoquinolin-3-yl)ethyl)amino)-8-(2-methoxypyridin-4-yl)pyrido[2,3-d]pyrimidin-5(8H)-one] |  |  |  |  | 14 | 21 |
| COc1ncc(-c2cccc3c(Cl)c([C@H](C)Nc4ncnc5[nH]ccc(=O)c45)n(-c4ccccc4)c(=O)c23)nc1OC [Example 28, (S)-4-((1-(4-chloro-8-(5,6-dimethoxypyrazin-2-yl)-1-oxo-2-phenyl-1,2-dihydroisoquinolin-3-yl)ethyl)amino)pyrido[2,3-d]pyrimidin-5(8H)-one] | 61 |  | 69 |  |  |  |

Next, values leading:

| inhibition at 0.01 µM (DNA-PK(h)) [%] | inhibition at 0.1 µM (DNA-PK(h); compound concentration 0.1 μM) [%] | inhibition at 0.01 µM [1] [%] | inhibition at 0.1 µM ([1]; compound concentration 0.1 μM) [%] | inhibition at 0.1 µM (DNA-PK(h); compound at 0.1 μM) [%] | inhibition at 0.1 µM ([1]; compound at 0.1 μM) [%] | Compound |
| --- | --- | --- | --- | --- | --- | --- |
| 7 | 53 | 51 | 88 |  |  | C[C@H](Nc1ncnc2[nH]ccc(=O)c12)c1c(Br)c2cccc(-c3ccc(N(C)C)cc3)c2c(=O)n1-c1ccccc1 [Example 16, (S)-4-((1-(4-bromo-8-(4-(dimethylamino)phenyl)-1-oxo-2-phenyl-1,2-dihydroisoquinolin-3-yl)ethyl)amino)pyrido[2,3-d]pyrimidin-5(8H)-one] |
| 78 |  | 88 |  |  |  | CCNc1ncc(-c2cccc3c(Cl)c([C@H](C)Nc4ncnc5[nH]ccc(=O)c45)n(-c4ccccc4)c(=O)c23)cn1 [Example 228, (S)-4-((1-(4-chloro-8-(2-(ethylamino)pyrimidin-5-yl)-1-oxo-2-phenyl-1,2-dihydroisoquinolin-3-yl)ethyl)amino)pyrido[2,3-d]pyrimidin-5(8H)-one] |
|  |  |  |  | 4 | 75 | C[C@H](Nc1ncnc2[nH]ccc(=O)c12)c1cc2cccc(-c3cnc(C(F)(F)F)nc3)c2c(=O)n1-c1ccccc1 [Example 385, (S)-4-((1-(1-oxo-2-phenyl-8-(2-(trifluoromethyl)pyrimidin-5-yl)-1,2-dihydroisoquinolin-3-yl)ethyl)amino)pyrido[2,3-d]pyrimidin-5(8H)-one] |
| -2 |  | 13 |  |  |  | C[C@H](Nc1ncnc2[nH]ccc(=O)c12)c1c(Cl)c2cccc(-c3ncc(C(F)(F)F)cn3)c2c(=O)n1-c1ccccc1 [Example 52, (S)-4-((1-(4-chloro-1-oxo-2-phenyl-8-(5-(trifluoromethyl)pyrimidin-2-yl)-1,2-dihydroisoquinolin-3-yl)ethyl)amino)pyrido[2,3-d]pyrimidin-5(8H)-one] |
| 50 |  | 11 |  |  |  | C[C@H](Nc1ncnc2[nH]ccc(=O)c12)c1c(Cl)c2cccc(NC(=O)C3CCC3)c2c(=O)n1-c1ccccc1 [Example 298, (S)—N-(4-chloro-1-oxo-3-(1-((5-oxo-5,8-dihydropyrido[2,3-d]pyrimidin-4-yl)amino)ethyl)-2-phenyl-1,2-dihydroisoquinolin-8-yl)cyclobutanecarboxamide] |
| 21 | 82 | 29 | 76 |  |  | C[C@H](Nc1ncnc2[nH]ccc(=O)c12)c1c(Cl)c2cccc(OCC(F)(F)F)c2c(=O)n1-c1ccccc1 [Example 364, (S)-4-((1-(4-chloro-1-oxo-2-phenyl-8-(2,2,2-trifluoroethoxy)-1,2-dihydroisoquinolin-3-yl)ethyl)amino)pyrido[2,3-d]pyrimidin-5(8H)-one] |
| 38 | 79 | 3 | 19 |  |  | CCCSc1cccc2c(Cl)c([C@H](C)Nc3ncnc4[nH]ccc(=O)c34)n(-c3ccccc3)c(=O)c12 [Example 372, (S)-4-((1-(4-chloro-1-oxo-2-phenyl-8-(propylthio)-1,2-dihydroisoquinolin-3-yl)ethyl)amino)pyrido[2,3-d]pyrimidin-5(8H)-one] |
| 4 | 42 | 53 | 97 |  |  | C[C@H](Nc1ncnc2[nH]ccc(=O)c12)c1c(Cl)c2cccc(N3CCCC3)c2c(=O)n1-c1ccccc1 [Example 252, (S)-4-((1-(4-chloro-1-oxo-2-phenyl-8-(pyrrolidin-1-yl)-1,2-dihydroisoquinolin-3-yl)ethyl)amino)pyrido[2,3-d]pyrimidin-5(8H)-one] |
